Data reported in PubChem BioAssay (NCI).
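Test compounds were applied to cells in 96-well plates for 48 hours at 5 doses. Abbreviation: GI50, concentration required for 50% inhibition of growth. TGI denotes the concentration required for complete inhibition of growth.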

Legend:
Assay in all cases: NCI anticancer screen, dose series, 48 h
MOLT-4 leukemia = test system: MOLT-4 leukemia
M14 melanoma = test system: M14 melanoma
RPMI-8226 leukemia = test system: RPMI-8226 leukemia
NCI/ADR-RES ovarian = test system: NCI/ADR-RES ovarian
SK-MEL-5 melanoma = test system: SK-MEL-5 melanoma
HT29 colon = test system: HT29 colon
OVCAR-8 ovarian = test system: OVCAR-8 ovarian
IGROV1 ovarian = test system: IGROV1 ovarian
A498 renal = test system: A498 renal
HOP-62 NSCLC = test system: HOP-62 NSCLC

Row | SMILES | GI50 (MOLT-4 leukemia) | TGI (MOLT-4 leukemia) | GI50 (M14 melanoma) | TGI (M14 melanoma) | GI50 (RPMI-8226 leukemia) | TGI (RPMI-8226 leukemia) | GI50 (NCI/ADR-RES ovarian) | TGI (NCI/ADR-RES ovarian) | GI50 (SK-MEL-5 melanoma) | TGI (SK-MEL-5 melanoma) | GI50 (HT29 colon) | TGI (HT29 colon) | GI50 (OVCAR-8 ovarian) | TGI (OVCAR-8 ovarian) | GI50 (IGROV1 ovarian) | TGI (IGROV1 ovarian) | TGI (A498 renal) | TGI (HOP-62 NSCLC) | GI50 (A498 renal) | GI50 (HOP-62 NSCLC)
1 | Cc1cn2c(/C=N/N=C(N)N)c(-c3cccs3)nc2s1 | 2.37 µM | 4.65 µM | 1.63 µM | 3.01 µM | 1.48 µM | 3.5 µM | 15.3 µM | 28.7 µM | 0.376 µM | 2.19 µM | 2.1 µM | 7.14 µM | 13.2 µM | 36 µM | 10.5 µM | 27.1 µM |  |  |  | 
2 | O=C(Nc1cccc(O)c1)C(=O)C(C(=O)c1ccc(Cl)c(Cl)c1)C1OC(=O)c2ccccc21 (configuration not stated) |  | 29.2 µM |  | 37.1 µM |  | 54.5 µM |  |  |  | 37.6 µM |  | 68.4 µM |  | 37.8 µM |  | 56.5 µM | 41.9 µM |  |  | 
3 | CCc1cccc(CC)c1NC(=O)C1=C(C)NC(C)=C(C(=O)Nc2c(CC)cccc2CC)C1c1ccc([N+](=O)[O-])cc1 |  | 43.3 µM |  | 42.5 µM |  | 37.4 µM |  |  |  | 33 µM |  | 40 µM |  | 64.3 µM |  | 52.4 µM | 64 µM | > 100 µM |  | 
4 | Cc1c(C(=O)/C=C/c2ccc(N(C)C)cc2)c(=O)n(-c2ccccc2)n1C |  | > 100 µM |  |  |  |  |  |  |  |  |  | > 100 µM |  | > 100 µM |  | > 100 µM | > 100 µM |  |  | 
5 | FC(F)(F)C1(Br)C(c2ccccc2)=C1c1ccccc1 |  | > 100 µM |  | 35 µM |  | > 100 µM |  |  |  | 28.8 µM |  | 34.8 µM |  | 30.5 µM |  | 74.3 µM |  | 39.4 µM |  | 
6 | CC1=NN(C(=O)c2ccc([N+](=O)[O-])cc2)C(=O)C1N=Nc1ccccc1C(=O)O (configuration not stated) |  | > 100 µM |  |  |  | > 100 µM |  |  |  | > 100 µM |  | > 100 µM |  | > 100 µM |  | > 100 µM | > 100 µM |  |  | 
7 | Cc1cc(N(CCC#N)S(C)(=O)=O)ccc1C=Nc1ccc(C(=O)NN2C(=O)/C(=C/c3ccc(N(CCC#N)CCC#N)cc3C)N=C2c2cc([N+](=O)[O-])ccc2Cl)cc1 |  |  |  | > 100 µM |  | > 100 µM |  |  |  | > 100 µM |  | > 100 µM |  | > 100 µM |  | > 100 µM | > 100 µM | > 100 µM |  | 
8 | CN1C(=O)C(=O)c2cc3c(c4c2c1cc1ccccc14)OCO3 |  | 93.4 µM |  | > 100 µM |  | > 100 µM |  |  |  | > 100 µM |  | > 100 µM |  | > 100 µM |  | > 100 µM | > 100 µM | > 100 µM |  | 
9 | COC1=CC(=O)C2C(C1=O)C(c1ccccc1)[C@H]2C (some centres not stated) |  | > 10 µM |  | > 100 µM |  | > 100 µM |  |  |  | > 100 µM |  | > 100 µM |  | > 100 µM |  | > 100 µM | > 100 µM | > 100 µM |  | 
10 | COC(C(=O)NCCCCNC(=O)C(OC)c1ccccc1)c1ccccc1 (configuration not stated) |  | > 100 µM |  | > 100 µM |  | > 100 µM |  |  |  | > 100 µM |  | > 100 µM |  | > 100 µM |  | > 100 µM | > 100 µM | > 100 µM |  | 
11 | CC/C(CC(=O)CCC(=O)Nc1ccccc1[N+](=O)[O-])=N/NC(=O)C[n+]1ccccc1 |  | > 100 µM |  | > 100 µM |  | > 100 µM |  |  |  | > 100 µM |  | > 100 µM |  | > 100 µM |  | > 100 µM | > 100 µM | > 100 µM |  | 
12 | C=C[C@@]1(O)CCCC2=C(C(=O)OCC)CC[C@]21C |  | > 100 µM |  | > 100 µM |  | > 100 µM |  |  |  | > 100 µM |  | > 100 µM |  | > 100 µM |  | > 100 µM |  |  |  | 
13 | COc1cc(CNC2c3cc4c(cc3C(c3cc(OC)c(OC)c(OC)c3)[C@H]3C(=O)OCC23)OCO4)cc(OC)c1OC (some centres not stated) |  | > 100 µM |  | > 100 µM |  | 79.2 µM |  |  |  | 0.538 µM |  | 19.5 µM |  |  |  | > 100 µM | 0.762 µM | 0.631 µM |  | 
14 | CC(=O)[CH-]C(=O)c1ccccc1.CC(=O)[CH-]C(=O)c1ccccc1.CCOCC[O-].CCOCC[O-].[Ti+4] | 10.4 µM | 56.5 µM | 16.7 µM | 37.1 µM | 18 µM | 58.7 µM |  |  | 22.5 µM | 53.3 µM | 20.1 µM | 46.2 µM | 19.6 µM | 41.7 µM | 31.9 µM | > 100 µM | 47.9 µM | 85.8 µM | 22.9 µM | 25.9 µM
15 | O=C1C(Cl)C(c2ccccc2O)N1n1cnc2ccccc2c1=O (configuration not stated) |  | > 100 µM |  | > 100 µM |  | > 100 µM |  |  |  | > 100 µM |  | > 100 µM |  | > 100 µM |  | > 100 µM |  | > 100 µM |  | 
16 | CCc1cc(CCC(=O)Nc2c(C)cccc2C)[nH]n1 |  | > 100 µM |  | > 100 µM |  | > 100 µM |  |  |  | > 100 µM |  | > 100 µM |  | > 100 µM |  | > 100 µM | > 100 µM | > 100 µM |  | 
17 | N#C/C(=C1\SC(N=Nc2ccccc2)C(=O)N1c1ccccc1)c1nc2ccccc2[nH]1 (configuration not stated) |  | > 100 µM |  | > 100 µM |  |  |  |  |  | > 100 µM |  | > 100 µM |  | > 100 µM |  | > 100 µM | > 100 µM | 73.6 µM |  | 
18 | C=C(Nc1ccc([N+](=O)[O-])cc1[N+](=O)[O-])c1c/c(=N\NC(N)=S)c2ccccc2o1 |  | > 100 µM |  | > 100 µM |  |  |  | > 100 µM |  | > 100 µM |  | > 100 µM |  | > 100 µM |  | > 100 µM |  | > 100 µM |  | 
19 | CN(C)c1nc(=Nc2cccc(Cl)c2)ss1 |  | 22.4 µM |  | 28.4 µM |  | 17.5 µM |  |  |  | > 100 µM |  | 36.3 µM |  | 25.6 µM |  | 51 µM | 93 µM | > 100 µM |  | 
20 | CCOC(=O)C(C)(C)Oc1ccc(/C=C/C(=O)c2ccc(Cl)cc2)cc1 |  | 76.8 µM |  | 34.7 µM |  | 53 µM |  |  |  | 28.3 µM |  | 29.3 µM |  | 41.3 µM |  | 35.1 µM | 52.8 µM | > 100 µM |  | 
21 | CN(C)C=C1C(Cl)=C(C=O)CC(C=O)=C1Cl |  | 10.2 µM |  | 26.7 µM |  | 7.2 µM |  |  |  | 23.5 µM |  | 30 µM |  | 12.6 µM |  | 33 µM |  | 51.7 µM |  | 
22 | Cc1cc(Cl)ccc1NC(=O)C(=O)C(C(=O)c1ccc2ccccc2c1)C1OC(=O)c2ccccc21 (configuration not stated) |  |  |  | 34.3 µM |  | 35.5 µM |  |  |  | 26.9 µM |  | 72.6 µM |  | > 100 µM |  | > 100 µM | 25.6 µM | 26.6 µM |  | 
